Assay type in all cases: in vivo, rat
In assay [1] the test system is microglia. Nature of the assay: Flow cytometry of brain leukocytes (CD45, CD11b/c, RT1B) for microglia status. The method, then:
(§1) Wistar rats (Janvier Labs, France) were raised and mated at INMED Post Genomic Platform (PPGI) animal facility. Rat cytomegalovirus (rat CMV) recombinant Maastricht strain (RCMV-Δ145-147-gfp) with a green fluorescent protein (GFP) expression cassette, and its production, purification and titration, were reported previously (17). In utero icv injections were performed at E15 as previously described (9,18) in embryos from timed pregnant rats that were anaesthetized with ketamine (100 mg/kg)/xylazine (10 mg/kg). […] Microglia status was modified in the embryos in vivo with doxycycline per os given to the mother throughout pregnancy (200 mg/kg in food pellet chow, Bioserv).
Leukocytes from brains obtained from anesthetized P1 or P7 pups were isolated as previously described (9). 1 to 3×10^6 leukocytes were incubated with Zombie NIR Fixable Viability kit (1:200; Bio legend) for 20 min at RT. Fc receptors were blocked using mouse anti-rat CD32 antibody (FcγII receptor, clone D34-485) for 10 min. at 4° C. to prevent against nonspecific binding. Cells were then stained with antibodies against combinations of cell surface markers as previously listed and described (9). An average of 1.3×10^5 living singlet cells were analyzed per brain equivalent on a BD LSRFortessa cell cytometer and raw data were analyzed using FACSDiva V8.0 software (BD Biosciences).

The test system of assay [2] is CMV-infected pups. Nature of the assay: Cliff aversion reflex sensorimotor test. As to conditions: treated in utero vs untreated infected pups; P1-P20; p<10^-4. The method, then:
as §1
(§2) For righting reflex evaluation, rat pups were placed in a supine position, and the time required to flip to the prone position was measured. For the cliff aversion reflex, animals were placed with their forepaws overhanging the edge of a board; the time required to turn >90° away from the edge was recorded. […] Generalized tonic-clonic epileptic seizures were detected visually, usually after animal handling, especially during cage changing and behavioral testing. […] For each rat, the reference electrode was inserted beneath the pinna of the assessed ear, the positive electrode beneath the skin on the vertex of the head, the ground electrode on the animal's back. […] Impedances were monitored to be below 2000Ω. […]

Assay [3] relates to CMV-infected pups. Put plainly: Generalized tonic-clonic epileptic seizures, detected visually. As to the method:
as §1, §2

The subject of assay [4] is CMV-infected pups. Put plainly: Righting reflex sensorimotor test. As to conditions: treated in utero vs untreated infected pups; P1-P20; p=0.025. As to the method:
as §1, §2

Assay [5] relates to microglia. Nature of the assay: Immunohistochemistry and cell counting of microglia (Iba1, Ed1/Cd68) in CMV-infected pup brain. Conditions: P1, lateral ventricular area; per os to dam E0 to birth; CMV untreated 42.74%, MEM 14.28%.
Protocol: Immunohistochemistry experiments were carried out on coronal brain slices (50-100 μm, vibratome, Microm; 14 μm, cryostat, Leica) as described previously (9) with the following primary (anti-Iba1: 1/500, Wako; anti-Cd68, Ed1 clone: 1/200, Millipore) and secondary (Alexa Fluor 568 or 647-conjugated goat anti-rabbit or anti-mouse IgGs; Life Technologies) antibodies. Hoescht 33258 (1:2000, Sigma) was used for nuclei staining.
For cell counting analyses, at least three adjacent brain sections were analyzed throughout the entire z-dimension for each sample using confocal microscopy. […] Cells were counted manually in each brain with Cell Profiler cell image analysis software (Broad Institute Cambridge, Mass., USA). For each channel of stack images, mean image intensity was measured using “MeasureImageIntensity” module and cells were identified with “IdentifyPrimaryObjects” module, in which Min and Max typical diameter of objects was set between 20 and 80 pixel units, respectively, and threshold was corrected by the mean intensity measured previously. Then, using mask images generated with the aforementioned module, colocalization between channels was evaluated with “RelateObjects” and “MaskObjects” in order to determine the number of overlapping objects. Finally, data were exported to a spreadsheet containing the number of quantified cells for each staining and of colocalizations. […]
Assay [6] relates to CMV-infected pups. Put plainly: Postnatal survival of pups infected with CMV in utero. The method, then:
as §1
Data were expressed as means ±s.e.m. unless otherwise stated. Non-parametric Mann Whitney test (two-tailed) followed by Bonferroni correction if needed, and non-parametric Kruskall-Wallis test to detect heterogeneous distribution between groups followed by Dunn's post test for multiple comparisons. were used whenever appropriate. Univariate Cox analysis and Fisher's exact test (two-tailed) were used to compare between survival distributions and rates and parametric Student's t test was used to compare between weight gains, whereas Chi-square test with Bonferroni correction and mixed model for repeated data using PROC GLIMMIX with sas 9.4 were used for all other phenotypic comparisons between groups of animals.

Assay [7] relates to CMV-infected pups. Put plainly: Hindlimb paralysis, determined visually. The method, then:
as §1, §2

Each structure is given as a SMILES string.

As for `C[C@H]1c2cccc(O)c2C(=O)C2=C(O)[C@]3(O)C(=O)C(C(N)=O)=C(O)[C@@H](N(C)C)[C@@H]3[C@@H](O)[C@@H]21` [doxycycline], the “proportion of reactive CD45low/int, CD11b/c+, RT1B+ microglia (fraction IV)” value in assay [1] (P7, after treatment discontinuation, untreated 58.93%) is reported as 55.76%. Also, in assay [1] (whole brain at P1, CMV untreated 13.98%, controls 0.73%), the “proportion of MHC class II-positive reactive microglia (fraction IV: CD45low/int, CD11b/c+, RT1B+)” value worked out at 5.66%. The “success to cliff aversion, odds ratio” value in assay [2] is 9.9. Also, the “decrease in risk of epileptic seizures” value in assay [3] (period of evaluation, treated in utero, p<10^-4) is on record as 5.9 fold. In addition, the “proportion of epileptic CMV-infected rats” value in assay [3] (untreated 24%, p=0.12) was 11%. Moreover, the “success to righting, odds ratio” value in assay [4] came to 2.6. Also, the “phagocytic activation index (PAI), ratio of Iba1+ Ed1+ cells to total Iba1+ cells” value in assay [5] was determined as 17.32%. For the same compound, the “infected pups survived at P20” value in assay [6] (dams treated per os throughout pregnancy, untreated 29.6%) worked out at 86.1%. For the same compound, in assay [6] (first three postnatal weeks, treated in utero vs untreated CMV-infected, p=0.0006), the “lower risk to postnatal death” value is 5.1. In assay [7] (first three postnatal weeks, untreated 83.3%, p=0.001), the “CMV-infected pups displaying hindlimb paralysis” value was 50%. In addition, in assay [7] (treated vs untreated, p=0.03), the “drop in risk of hindlimb paralysis” value came out at 6.2 fold.

For the origin of these results see patent publication US11690856B2, “Compounds for treating CMV related diseases” (INSERM (INSTITUT NATIONAL DE LA SANTE ET DE LA RECHERCHE …, priority 2017, dated 2023).
